Data reported in US6586413B2, “Methods and compositions for reducing ischemic injury of the heart by administering adenosine receptor agonists and antagonists” (The United States of America as represented by the …, priority 1999, dated 2003).

Key:
[1] = test system: ventricular myocytes cultured from chick embryos; experiment: Pharmacological preconditioning: 5 min exposure to agent, then 90 min simulated ischemia; type: cell-based; settings: for preconditioning / cardioprotective effect: agent alone, 5 min exposure before 90 min ischemia; for maximal protection compared with full agonist: partial agonist vs full agonist (CCPA or Cl-IB-MECA); for effect of high concentration of partial agonist on protection by full agonist: with full agonist CCPA or Cl-IB-MECA
Protocol: FIG. 14 is a graph showing that the partial A1 receptor agonist, 8-butylaminoCPA, mimics the cardioprotective effect of ischemic preconditioning. Ventricular myocytes were cultured from chick embryos 14 days in ovo. The ability of the partial A1 agonist, 8-butylaminoCPA (8-butylamino-N^6-cyclopentyladenosine), to induce preconditioning was determined. In brief, myocytes were exposed to 8-butylaminoCPA at the indicated concentrations for 5 min, incubated for 10 min with agonist-free medium, and then exposed to simulated ischemia for 90 min. The extent of myocyte injury was quantitated at the end of the 90 min period by determinating the percentage of cells killed and the amount of creatine kinase (CK) released (units per milligram of cell protein). Data are means±SE of values from five independent experiments.
Determination of myocyte injury was made at the end of the ninety-minute hypoxia, at which time myocytes were taken out of the hypoxic incubator and re-exposed to room air (normal % O2). Aliquots of the media were then obtained for creatine kinase (CK) activity measurement, which is followed by quantitation of the number of viable cells. Measurement of basal level of cell injury was made after parallel incubation of control cells under normal % O2. The extent of hypoxia-induced injury to the ventricular cell was quantitatively determined by the percentages of cells killed and by the amount of CK released into the media according to a previously described method (16, 23). […] In brief, the media were replaced with a trypsin-EDTA buffer to detach the cells, which was then followed by sedimentation of the viable myocytes. Parallel changes in % cells killed and CK released (16, 23) further validated this assay for % cells killed. The amount of CK was measured as enzyme activity (unit/mg), and increases in CK activity above the control level were determined. The percentage of cells killed was calculated as the number of cells obtained from the control group (representing cells not subjected to any hypoxia or drug treatment) minus the number of cells from the treatment group divided by number of cells in control group multiplied by 100%.
Media were then replaced with fresh media, which was then followed by exposure to 90-minute simulated ischemia and the data graphed.

[2] = test system: diacylglycerol level; experiment: Diacylglycerol (DAG) accumulation in [3H]myristate-labeled ventricular myocytes; type: cell-based, chick; settings: 1 μM 8-butylaminoCPA or 10 nM MRS1760 for 5 min
Protocol: FIGS. 15A and 15B show the coupling of the partial A1 and A3 receptor agonists to stimulation of DAG accumulation and the differential inhibitory effects of the phospholipase C inhibitor U-73122 on the cardioprotection caused by 8-butylaminoCPA or by MRS1760, respectively. FIG. 15A: Ventricular myocytes were labeled with [^3H]myristate (Dupont, 49 Ci/mmol, […]) for 24 hours, exposed to 1 μM of 8-butylaminoCPA or 10 nM MRS1760 for 5 min, and the amount of DAG was determined by thin-layer chromatography. Data are expressed as the percentage increase in the amount of DAG relative to that for unstimulated cells, and are means±SE of values from five independent experiments. FIG. 15B: Effects of U-73122 on cardioprotection induced by 8-butylaminoCPA or by MRS1760 were determined. U-73122 (10 μM) was either included or not during the 5 min exposure of ventricular myocytes to 1 μM 8-butylaminoCPA or 10 nM MRS1760, and cardiac injury was assessed after ischemia as described herein below. […]
Quantitation of diacylglycerol (DAG) and measurement of phospholipase D (PLD) activity were carried out as previously described (35, 36). The formation of [^3H] phosphotidylethanol (PEt) during agonist exposure in media containing 0.5% (v/v) ethanol was determined by scintillation counting following its separation from other phospholipids on thin layer chromatography as described (36). […]

[3] = test system: phospholipase C; experiment: Phospholipase C activity in cardiac myocytes; type: cell-based, chick
Protocol: To further test this notion, the ability of 8-butylaminoCPA to stimulate phospholipase C as measured by […] formation, a downstream signaling molecule that mediates the cardioprotective effect of adenosine A1 receptor was determined.

[4] = test system: phospholipase D; experiment: Phospholipase D activity ([3H]phosphatidylethanol formation); type: cell-based, chick
Protocol: Quantitation of diacylglycerol (DAG) and measurement of phospholipase D (PLD) activity were carried out as previously described (35, 36). The formation of [^3H] phosphotidylethanol (PEt) during agonist exposure in media containing 0.5% (v/v) ethanol was determined by scintillation counting following its separation from other phospholipids on thin layer chromatography as described (36). The level of [^3H] PEt represents an index of the PLD activity. The position of DAG or PEt was determined by immersing the thin layer plate in an iodine chamber and their levels were expressed as a percentage of total lipids. Data were expressed as the percentage increase in the amount of DAG or PEt relative to that for unstimulated cells.

Q: With `CCCCNc1nc2c(NC3CCCC3)ncnc2n1[C@@H]1O[C@H](CO)[C@@H](O)[C@H]1O` [8-butylaminoCPA, 8-butylamino-N^6-cyclopentyladenosine] as the compound, how does the “preconditioning / cardioprotective effect” value [1] read?
A: able to induce a marked cardioprotective effect

Q: What about the “maximal protection compared with full agonist” value [1] of the same compound?
A: less than that produced by the full agonist CCPA

Q: What about the “effect of high concentration of partial agonist on protection by full agonist” value [1] of the same compound?
A: able to antagonize the protection caused by the full agonist CCPA

Q: What about the diacylglycerol level [2] of the same compound?
A: an increase in the diacylglycerol level

Q: And the PLC activity [3]?
A: able to stimulate PLC activity

Q: Which results are given for `OC[C@@]12C[C@@H]1[C@@H](n1cnc3c(NCc4cccc(I)c4)nc(Cl)nc31)[C@H](O)[C@@H]2O` [MRS1760, (1′R,2′R,3′S,4′R,5′S)-4-{2-Chloro-6-[(3-iodophenylmethyl)amino]purin-9-yl}-1-(hydroxymethyl)bicyclo[3.1.0]-hexane-2,3-diol]?
A: preconditioning / cardioprotective effect [1]: able to induce a marked protective effect against ischemia; maximal protection compared with full agonist [1]: less than the maximal effect caused by Cl-IB-MECA; effect of high concentration of partial agonist on protection by full agonist [1]: blocked the protection induced by the full agonist Cl-IB-MECA; diacylglycerol level [2]: an increase in the diacylglycerol level; PLD activity [4]: able to stimulate PLD activity
